From patent US5126057A, “Disinfecting with N,N'-dihaloimidazolidin-4-ones” (Auburn Research Foundation, priority 1991, dated 1992)

Assays:
[1] = Laboratory stability in halogen demand-free water (DFW), iodometric titration; format: physicochemical; conditions: for remaining at 23.52 h / remaining at 95.76 h / remaining at 168 h / remaining at 336 h / remaining at 504 h / remaining at 672 h / remaining at 840 h / remaining at 1008 h / remaining at 119.28 h: demand-free water
Procedure: The stability of 1,3-dichloro-2,2,5,5-tetramethylimidazolidin-4-one (Compound 1) in halogen demand-free water was determined at 22° C. and pH values of 4.5, 7.0, and 9.5, and the results were compared to those for free chlorine as supplied by calcium hypochlorite. The demand-free water (DFW) was prepared by chlorination of distilled, deionized water buffered to the appropriate pH followed by dechlorination (of the excess free chlorine) by exposure to direct sunlight until no free chlorine remained. This treatment insured that all halogen demand in the water was neutralized. Then Compound 1 and calcium hypochlorite were separately dissolved in identical DFW (buffered to an appropriate pH) solutions to the same final total chlorine concentrations (10 milligrams per liter potential positive chlorine). The solutions in separate flasks, which were stoppered with porous, sterile cotton plugs to allow free exchange with laboratory air, were then held at a constant temperature of 22° C. by means of a controlled water bath for a period of several weeks. Aliquots were withdrawn periodically (at least weekly), and the total positive chlorine remaining was determined in triplicate by standard iodometric titration. […]
The stabilities of 1,3-dibromo-2,2,5,5-tetramethylimidazolidin-4-one (Compound 4) and 1-bromo-3-chloro-2,2,5,5-tetramethylimidazolidin-4-one (Compound 5) in halogen demand-free water (DFW) were determined at 22° C. and pH values of 7.0 and 9.5 using the same procedures as discussed under example 9. Given the instability of Compound 1 at pH 4.5 (example 9), it was deemed unnecessary to test compounds 4 and 5 at that pH. The two compounds were dissolved in DFW buffered to the appropriate pH in separate flasks and held at a temperature of 22° C. by means of a constant temperature bath. The starting concentrations of total potential positive halogen in the two solutions were 22.6 milligrams per liter for Compound 4 and 16.25 milligrams per liter for Compound 5; these concentrations represent the molar equivalents in total potential positive halogen to that used for Compound 1 in example 9. The solutions were analyzed in the manner described in example 9.

[2] = Stability in synthetic halogen demand water (SDW); format: physicochemical; conditions: 4° C.; for stability (in words): heavy halogen demand (SDW), pH 9.5; for remaining at 0.083 h: pH 9.5, 0.083 hrs; for remaining at 0.5 h: pH 9.5, 0.5 hrs; for remaining at 2 h: pH 9.5, 2.0 hrs; for remaining at 24 h: pH 9.5, 24.0 hrs; for remaining at 1 h: pH 9.5, 1.0 hrs; for remaining at 4 h: pH 9.5, 4.0 hrs
Procedure: A synthetic halogen demand water (SDW) was prepared by mixing the following substances with demand-free water (DFW): 375 milligrams per liter of each of the inorganic salts sodium chloride, potassium chloride, calcium chloride, and magnesium chloride; 50 milligrams per liter of Bentonite clay; 30 milligrams per liter of humic acid; 0.01 percent final concentration of heat-treated horse serum; and 5×10^5 cells per milliliter of heat-killed Saccharomyces cerevisiae yeast cells. The SDW solution was buffered with 0.01 Molar borate/sodium hydroxide to a pH of 9.5 and held at 4° C. during the experiments. The conditions of high ionic strength, turbidity, and organic material, and alkaline pH at low temperature, are viewed as a worst-case scenario for disinfection applications and thus should provide the optimum test of stability for the new compounds.
In separate flasks were dissolved compounds 1, 2, 3, and 5 to a starting concentration of 10 milligrams per liter total potential positive chlorine or its molar equivalent (16.25 milligrams per liter) in total potential positive halogen for Compound 5. Aliquots were withdrawn frequently over a period of more than 90 hours, and the percent positive halogen remaining was determined by standard iodometric titration.

[3] = tested on: Staphylococcus aureus (ATCC25923); test: Bactericidal efficacy, percent inactivation of S. aureus; format: cell-based; conditions: for killing at 5 ppm: DFW; for killing at 10 ppm: SDW
Procedure: (§1) The halogenated imidazolidin-4-one derivatives prepared as in examples 3, 5, and 6 (Compounds 1, 5, and 3, respectively) were tested as bactericides against the microorganisms Staphylococcus aureus (ATCC25923) and Pseudomonas aeruginosa (ATCC 27853) in demand-free water (DFW) as a function of pH and temperature and in a synthetic-demand water (SDW) at pH 9.5 and 4° C. The demand-free and synthetic-demand waters were prepared as described in examples 7 and 12, respectively.
(§2) For the bactericidal efficacy tests 50 milliliters of buffered DFW or SDW were placed in a 125 milliliter flask which was then inoculated with the organism to be tested such that the final density of the organism was about 1×10^6 cfu/ml (colony forming units per milliliter). The inoculated solution was allowed to equilibrate at the test temperature by immersion in a thermostated water bath for 15 minutes with constant stirring. Then an appropriate amount of an aqueous solution containing the test halogenated imidazolidin-4-one compound maintained at the same test temperature was added to the inoculated solution to bring the total concentration of potential positive halogen (Cl^+ or Cl^+ /Br^+) in the mixture to a predetermined level (10 parts per million and 5 parts per million Cl^+ from compounds 1 and 3; the molar equivalent in Cl^+ /Br^+ from Compound 5). 1 milliliter aliquots were removed from the test mixture at various predetermined times, and the active halogen was quenched by 1 milliliter portions of sterile 0.02 Normal sodium thiosulfate. Serial dilutions were made into sterile saline, and three 25 microliter aliquots of each of the resulting dilutions were applied to the dried surface of a Petri dish containing tryptic soy and nutrient agars for plating S. aureus and P. aeruginosa, respectively. After 48 hours at 37° C. the three replicates for each dilution were counted and averaged. This average was used to compute the cfu/ml for that particular aliquot. Inactivation of the organism was considered to be at least 99.9999 percent when no colonies were detected in the thiosulfate quenched aliquots.

[4] = tested on: bacteria; test: Bactericidal efficacy, summary over all bacteria and conditions; format: cell-based, Staphylococcus aureus and Pseudomonas aeruginosa; conditions: for bactericidal efficiency (in words): Table V conditions
Procedure: as §1, §2

[5] = synthetic halogen demand water, SDW, read-out: Percent Halogen Remaining
[6] = ATCC25923, 5 min, pH 4.5, pH 4.5, 22° C., 5 minutes
[7] = ATCC25923, 5 min, pH 7, pH 7.0, 22° C., 5 minutes
[8] = ATCC25923, 5 min, pH 9.5, pH 9.5, 4° C., 5 minutes
[9] = ATCC25923, 5 min, pH 9.5, pH 9.5, 22° C., 5 minutes
[10] = ATCC25923, 10 min, pH 4.5, pH 4.5, 22° C., 10 minutes
[11] = ATCC25923, 10 min, pH 7, pH 7.0, 22° C., 10 minutes
[12] = ATCC25923, 10 min, pH 9.5, pH 9.5, 4° C., 10 minutes
[13] = ATCC25923, 10 min, pH 9.5, pH 9.5, 22° C., 10 minutes

Structure (SMILES): CC1(C)NC(=O)C(C)(C)N1Cl [Compound 3, 1-chloro-2,2,5,5-tetramethylimidazolidin-4-one]
- stability (in words) ([1]; pH 7): more stable than Compound 1 and considerably more stable than free chlorine (Compound 2) in DFW at pH 7.0 and 22 °C
- stability (in words) [2]: extremely stable in the presence of heavy demand
- remaining at 0.083 h [2, 5]: 99.2%
- remaining at 0.5 h [2, 5]: 96.6%
- remaining at 2 h [2, 5]: 95.4%
- remaining at 8 h ([2]; synthetic halogen demand water, SDW, pH 9.5, 8.0 hrs, read-out: Percent Halogen Remaining): 94.1%
- remaining at 24 h [2, 5]: 94.9%
- remaining at 48 h ([2]; synthetic halogen demand water, SDW, pH 9.5, 48.0 hrs, read-out: Percent Halogen Remaining): 94.5%
- remaining at 72 h ([2]; synthetic halogen demand water, SDW, pH 9.5, 72.0 hrs, read-out: Percent Halogen Remaining): 94.1%
- remaining at 122 h ([2]; synthetic halogen demand water, SDW, pH 9.5, 122.0 hrs, read-out: Percent Halogen Remaining): 94.1%
- killing at 5 ppm [3, 6]: 87.4%
- killing at 5 ppm [3, 7]: 0%
- killing at 10 ppm [3, 8]: 2.86%
- killing at 5 ppm [3, 9]: 32.7%
- killing at 5 ppm [3, 10]: 96.3%
- killing at 5 ppm [3, 11]: 4.42%
- killing at 10 ppm [3, 12]: 0%
- killing at 5 ppm [3, 13]: 50.2%
- bactericidal efficiency (in words) [4]: least efficient
- inactivation ([4]; all conditions tested, given sufficient contact time): greater than 99.9999%

Structure (SMILES): CC1(C)C(=O)N(Cl)C(C)(C)N1Cl [Compound 1, 1,3-dichloro-2,2,5,5-tetramethylimidazolidin-4-one]
- stability (in words), against Compounds 4 and 5 [1]: considerably more stable in DFW at pH values of 7.0 and 9.5 and 22 °C than are Compounds 4 and 5
- remaining at 23.52 h ([1]; pH 4.5): 100%
- remaining at 95.76 h ([1]; pH 4.5): 88.9%
- remaining at 168 h ([1]; pH 4.5): 77.6%
- remaining at 336 h ([1]; pH 4.5): 55.5%
- remaining at 504 h ([1]; pH 4.5): 40.4%
- remaining at 672 h ([1]; pH 4.5): 30.7%
- remaining at 840 h ([1]; pH 4.5): 26%
- remaining at 1008 h ([1]; pH 4.5): 23.5%
- remaining at 168 h ([1]; pH 7): 97.1%
- remaining at 336 h ([1]; pH 7): 95%
- remaining at 504 h ([1]; pH 7): 93.5%
- remaining at 672 h ([1]; pH 7): 90.6%
- remaining at 840 h ([1]; pH 7): 86%
- remaining at 1008 h ([1]; pH 7): 83.4%
- remaining at 23.52 h ([1]; pH 9.5): 96.5%
- remaining at 95.76 h ([1]; pH 9.5): 98.9%
- remaining at 168 h ([1]; pH 9.5): 95.1%
- remaining at 336 h ([1]; pH 9.5): 89.4%
- remaining at 504 h ([1]; pH 9.5): 82.6%
- remaining at 672 h ([1]; pH 9.5): 72.3%
- remaining at 840 h ([1]; pH 9.5): 63.7%
- remaining at 1008 h ([1]; pH 9.5): 55.1%
- stability (in words) ([1]; pH 4.5): rather unstable in acidic DFW (pH 4.5)
- stability (in words) ([1]; pH 7): considerably more stable in DFW at pH 7.0 at 22 °C than is free chlorine
- stability (in words), against free chlorine ([1]; pH 9.5): more stable than free chlorine in alkaline DFW (pH 9.5)
- stability (in words) [2]: much more stable under these conditions than is free chlorine
- remaining at 0.083 h [2, 5]: 98.8%
- remaining at 0.25 h ([2]; synthetic halogen demand water, SDW, pH 9.5, 0.25 hrs, read-out: Percent Halogen Remaining): 98.8%
- remaining at 0.5 h [2, 5]: 93.1%
- remaining at 1 h [2, 5]: 92.4%
- remaining at 2 h [2, 5]: 92.4%
- remaining at 4 h [2, 5]: 88.8%
- remaining at 25 h ([2]; synthetic halogen demand water, SDW, pH 9.5, 25.0 hrs, read-out: Percent Halogen Remaining): 71.4%
- remaining at 93 h ([2]; synthetic halogen demand water, SDW, pH 9.5, 93.0 hrs, read-out: Percent Halogen Remaining): 60.2%
- killing at 5 ppm [3, 6]: 100%
- killing at 5 ppm [3, 7]: 89.1%
- killing at 5 ppm [3, 8]: 71.3%
- killing at 10 ppm [3, 8]: 43.8%
- killing at 5 ppm [3, 9]: > 100%
- killing at 5 ppm [3, 10]: > 100%
- killing at 5 ppm [3, 11]: 99.1%
- killing at 5 ppm [3, 12]: 80.9%
- killing at 10 ppm [3, 12]: 68.1%
- killing at 5 ppm [3, 13]: > 100%
- bactericidal efficiency (in words) [4]: reasonably efficient as a bactericide

Structure (SMILES): CC1(C)C(=O)N(Cl)C(C)(C)N1Br [Compound 5, 1-bromo-3-chloro-2,2,5,5-tetramethylimidazolidin-4-one]
- remaining at 23.52 h ([1]; pH 7): 97.3%
- remaining at 119.28 h ([1]; pH 7): 95.4%
- remaining at 168 h ([1]; pH 7): 91.7%
- remaining at 336 h ([1]; pH 7): 88.2%
- remaining at 504 h ([1]; pH 7): 75%
- remaining at 672 h ([1]; pH 7): 45.9%
- remaining at 840 h ([1]; pH 7): 17.5%
- remaining at 1008 h ([1]; pH 7): 7.6%
- remaining at 23.52 h ([1]; pH 9.5): 96.3%
- remaining at 119.28 h ([1]; pH 9.5): 89.5%
- remaining at 168 h ([1]; pH 9.5): 88.3%
- remaining at 336 h ([1]; pH 9.5): 86.3%
- remaining at 504 h ([1]; pH 9.5): 70.8%
- remaining at 672 h ([1]; pH 9.5): 60.8%
- remaining at 840 h ([1]; pH 9.5): 46.8%
- remaining at 1008 h ([1]; pH 9.5): 38.4%
- stability (in words), against free chlorine ([1]; pH 9.5): comparable in stability to free chlorine (see data in example 9) at pH 9.5 only
- stability (in words) [2]: comparable in stability to free chlorine under these conditions
- remaining at 0.008 h ([2]; synthetic halogen demand water, SDW, pH 9.5, 0.008 hrs, read-out: Percent Halogen Remaining): 64%
- remaining at 0.167 h ([2]; synthetic halogen demand water, SDW, pH 9.5, 0.167 hrs, read-out: Percent Halogen Remaining): 49.9%
- remaining at 0.5 h [2, 5]: 47.1%
- remaining at 1 h [2, 5]: 47.4%
- remaining at 4 h [2, 5]: 41.9%
- remaining at 24 h [2, 5]: 38.2%
- remaining at 94 h ([2]; synthetic halogen demand water, SDW, pH 9.5, 94.0 hrs, read-out: Percent Halogen Remaining): 31.8%
- killing at 5 ppm [3, 6]: > 100%
- killing at 5 ppm [3, 7]: > 100%
- killing at 5 ppm [3, 8]: > 100%
- killing at 10 ppm [3, 8]: > 100%
- killing at 5 ppm [3, 9]: > 100%
- killing at 5 ppm [3, 10]: > 100%
- killing at 5 ppm [3, 11]: > 100%
- killing at 5 ppm [3, 12]: > 100%
- killing at 10 ppm [3, 12]: > 100%
- killing at 5 ppm [3, 13]: > 100%
- reduction of bacteria ([4]; all conditions, less than or equal 5 minutes of contact time, even in SDW): greater than 99.9999%
